Tests used:
[1] = test system: Glomerella lagenarium (Colletotrichum lagenarium); assay: Fungicidal activity against Glomerella lagenarium (Colletotrichum lagenarium) liquid culture / cucumber / preventative (anthracnose); type: cell-based; conditions: Colletotrichum orbiculare; 20 ppm in the applied formulation; liquid culture (PDB), growth inhibition measured photometrically after 3 to 4 days; compared to untreated control; read-out: disease control
In short: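 Percent activity against the untreated check was derived from photometric growth measurements made 2 to 7 days after conidia in potato dextrose broth were combined with compound at 20 ppm. Cultures were kept dark at 24 °C and 96% humidity.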

[2] = test system: Puccinia recondita f. Sp. Tritici; assay: Fungicidal activity against Puccinia recondita f. sp. tritici / wheat / leaf disc preventative (brown rust); type: in vivo; conditions: foliar, 200 ppm in the applied formulation, wheat leaf segments, preventative, compared to untreated control leaf disks, read-out: disease control
Protocol: Leaf disks or leaf segments of various plant species are cut from plants grown in a greenhouse. The cut leaf disks or segments are placed in multiwell plates (24-well format) onto water agar. The leaf disks are sprayed with a test solution before (preventative) or after (curative) inoculation. Compounds to be tested are prepared as DMSO solutions (max. 10 mg/ml) which are diluted to the appropriate concentration with 0.025% Tween20 just before spraying. The inoculated leaf disks or segments are incubated under defined conditions (temperature, relative humidity, light, etc.) according to the respective test system. A single evaluation of disease level is carried out 3 to 14 days after inoculation, depending on the pathosystem. Percent disease control relative to the untreated check leaf disks or segments is then calculated.
Fungicidal Activity Against Puccinia recondita f. Sp. Tritici/Wheat/Leaf Disc Preventative (Brown Rust)
Wheat leaf segments cv. Kanzler were placed on agar in multiwell plates (24-well format) and sprayed with the formulated test compound diluted in water. The leaf disks were inoculated with a spore suspension of the fungus 1 day after application. The inoculated leaf segments were incubated at 19° C. and 75% relative humidity (rh) under a light regime of 12 hours light/12 hours darkness in a climate cabinet and the activity of a compound was assessed as percent disease control compared to untreated when an appropriate level of disease damage appears in untreated check leaf segments (7 to 9 days after application).
The following compounds at 200 ppm in the applied formulation give at least 80% disease control in this test when compared to untreated control leaf disks under the same conditions, which show extensive disease development.

SMILES	inhibition of growth at 20 ppm [1] [%]	pest or weed control at 200 ppm [2] [%]
CON(Cc1ccc(-c2noc(C(F)(F)F)n2)cc1)C(=O)c1cccc2nnsc12 [Compound 1.67, N-methoxy-N-[[4-[5-(trifluoromethyl)-1,2,4-oxadiazol-3-yl]phenyl]methyl]-1,2,3-benzothiadiazole-7-carboxamide]	≥ 80	≥ 80
C#CCOC(C(=O)N(Cc1ccc(-c2noc(C(F)(F)F)n2)cc1)OC)c1ccc(Cl)cc1 (centres unmarked) [Compound 1.69, 2-(4-chlorophenyl)-N-methoxy-2-prop-2-ynoxy-N-[[4-[5-(trifluoromethyl)-1,2,4-oxadiazol-3-yl]phenyl]methyl]-acetamide]	≥ 80	≥ 80
Cc1cccc(C)c1C(=O)N(Cc1ccc(-c2noc(C(F)(F)F)n2)cc1)C1CC1 [Compound 1.105, N-cyclopropyl-2,6-dimethyl-N-[[4-[5-(trifluoromethyl)-1,2,4-oxadiazol-3-yl]phenyl]methyl]-benzamide]	≥ 80	≥ 80
CC1(C(=O)N(Cc2ccc(-c3noc(C(F)(F)F)n3)cc2)C2CC2)CC1(Cl)Cl (centres unmarked) [Compound 1.107, 2,2-dichloro-N-cyclopropyl-1-methyl-N-[[4-[5-(trifluoromethyl)-1,2,4-oxadiazol-3-yl]phenyl]methyl]-cyclopropane-carboxamide]	≥ 80	≥ 80
COc1ccccc1CC(=O)N(Cc1ccc(-c2noc(C(F)(F)F)n2)cc1)C1CC1 [Compound 1.113, N-cyclopropyl-2-(2-methoxyphenyl)-N-[[4-[5-(trifluoromethyl)-1,2,4-oxadiazol-3-yl]phenyl]methyl]-acetamide]	≥ 80	≥ 80
O=C(c1ccccc1Cl)N(Cc1ccc(-c2noc(C(F)(F)F)n2)cc1)C1CC1 [Compound 1.120, 2-chloro-N-cyclopropyl-N-[[4-[5-(trifluoromethyl)-1,2,4-oxadiazol-3-yl]phenyl]methyl]-benzamide]	≥ 80	≥ 80
O=C(c1cc2c(cc1Br)OCO2)N(Cc1ccc(-c2noc(C(F)(F)F)n2)cc1)C1CC1 [Compound 1.133, 6-bromo-N-cyclopropyl-N-[[4-[5-(trifluoromethyl)-1,2,4-oxadiazol-3-yl]phenyl]methyl]-1,3-benzodioxole-5-carboxamide]	≥ 80	≥ 80
C#CCOC(C(=O)N(Cc1ccc(-c2noc(C(F)(F)F)n2)cc1)C1CC1)c1ccc(Cl)cc1 (centres unmarked) [Compound 1.141, 2-(4-chlorophenyl)-N-cyclopropyl-2-prop-2-ynoxy-N-[[4-[5-(trifluoromethyl)-1,2,4-oxadiazol-3-yl]phenyl]methyl]-acetamide]	–	≥ 80
O=C(c1ccc(Cl)cc1)N(Cc1ccc(-c2noc(C(F)(F)F)n2)cc1)C1CC1 [Compound 1.142, 4-chloro-N-cyclopropyl-N-[[4-[5-(trifluoromethyl)-1,2,4-oxadiazol-3-yl]phenyl]methyl]-benzamide]	≥ 80	≥ 80
COc1ccc(C2(C(=O)N(Cc3ccc(-c4noc(C(F)(F)F)n4)cc3)C3CC3)CC2)cc1 [Compound 1.143, N-cyclopropyl-1-(4-methoxyphenyl)-N-[[4-[5-(trifluoromethyl)-1,2,4-oxadiazol-3-yl]phenyl]methyl]-cyclopropane-carboxamide]	–	≥ 80
C#CCN(Cc1ccc(-c2noc(C(F)(F)F)n2)cc1)C(=O)CC1CCCC1 [Compound 1.152, 2-cyclopentyl-N-prop-2-ynyl-N-[[4-[5-(trifluoromethyl)-1,2,4-oxadiazol-3-yl]phenyl]methyl]-acetamide]	≥ 80	≥ 80
C#CCN(Cc1ccc(-c2noc(C(F)(F)F)n2)cc1)C(=O)c1cc(Cl)ccc1O [Compound 1.184, 5-chloro-2-hydroxy-N-prop-2-ynyl-N-[[4-(5-(trifluoromethyl)-1,2,4-oxadiazol-3-yl]phenyl]methyl]-benzamide]	≥ 80	≥ 80
C#CCN(Cc1ccc(-c2noc(C(F)(F)F)n2)cc1)C(=O)Cc1ccccc1 [Compound 1.186, 2-phenyl-N-prop-2-ynyl-N-[[4-[5-(trifluoromethyl)-1,2,4-oxadiazol-3-yl]phenyl]methyl]-acetamide]	–	≥ 80
C#CCOC(=O)NC(C(=O)N(CC#C)Cc1ccc(-c2noc(C(F)(F)F)n2)cc1)C(C)C (centres unmarked) [Compound 1.198, prop-2-ynyl N-[2-methyl-1-[prop-2-ynyl-[[4-[5-(trifluoromethyl)-1,2,4-oxadiazol-3-yl]phenyl]methyl]-carbamoyl]propyl]-carbamate]	–	≥ 80
C#CCCC(=O)N(Cc1ccc(-c2noc(C(F)(F)F)n2)cc1)CC1CC1 [Compound 1.205, N-(cyclopropylmethyl)-N-[[4-[5-(trifluoromethyl)-1,2,4-oxadiazol-3-yl]phenyl]methyl]pent-4-ynamide]	≥ 80	≥ 80
O=C(Cc1cccnc1)N(Cc1ccc(-c2noc(C(F)(F)F)n2)cc1)CC1CC1 [Compound 1.214, N-(cyclopropylmethyl)-2-(3-pyridyl)-N-[[4-[5-(trifluoromethyl)-1,2,4-oxadiazol-3-yl]phenyl]methyl]-acetamide]	≥ 80	≥ 80
CC(C)(CCl)C(=O)N(Cc1ccc(-c2noc(C(F)(F)F)n2)cc1)CC1CC1 [Compound 1.219, 3-chloro-N-(cyclopropylmethyl)-2,2-dimethyl-N-[[4-[5-(trifluoromethyl)-1,2,4-oxadiazol-3-yl]phenyl]methyl]-propanamide]	≥ 80	≥ 80
O=C(Cc1ccc(Cl)cc1)N(Cc1ccc(-c2noc(C(F)(F)F)n2)cc1)CC1CC1 [Compound 1.234, 2-(4-chlorophenyl)-N-(cyclopropylmethyl)-N-[[4-[5-(trifluoromethyl)-1,2,4-oxadiazol-3-yl]phenyl]methyl]-acetamide]	–	≥ 80
O=C(c1ccccc1)N(Cc1ccc(-c2noc(C(F)(F)F)n2)cc1)CC1CC1 [Compound 1.247, N-(cyclopropylmethyl)-N-[[4-[5-(trifluoromethyl)-1,2,4-oxadiazol-3-yl]phenyl]methyl]-benzamide]	≥ 80	≥ 80
CC=CC(=O)N(OC)C(C)c1ccc(-c2noc(C(F)(F)F)n2)cc1 (centres unmarked) [Compound 1.250, N-methoxy-N-[1-[4-[5-(trifluoromethyl)-1,2,4-oxadiazol-3-yl]phenyl]ethyl]but-2-enamide]	≥ 80	≥ 80
CON(C(=O)C1CC1(F)F)C(C)c1ccc(-c2noc(C(F)(F)F)n2)cc1 (centres unmarked) [Compound 1.251, 2,2-difluoro-N-methoxy-N-[1-[4-[5-(trifluoromethyl)-1,2,4-oxadiazol-3-yl]phenyl]ethyl]-cyclopropane-carboxamide]	≥ 80	≥ 80
CON(C(=O)C=C(F)CCl)C(C)c1ccc(-c2noc(C(F)(F)F)n2)cc1 (centres unmarked) [Compound 1.252, 4-chloro-3-fluoro-N-methoxy-N-[1-[4-[5-(trifluoromethyl)-1,2,4-oxadiazol-3-yl]phenyl]ethyl]but-2-enamide]	≥ 80	≥ 80
CON(C(=O)C1=CCCC1)C(C)c1ccc(-c2noc(C(F)(F)F)n2)cc1 (centres unmarked) [Compound 1.258, N-methoxy-N-[1-[4-[5-(trifluoromethyl)-1,2,4-oxadiazol-3-yl]phenyl]ethyl]-cyclopentene-1-carboxamide]	≥ 80	≥ 80
COCCN(Cc1ccc(-c2noc(C(F)(F)F)n2)cc1)C(=O)C1(NC=O)CC1 [Compound 1.354, 1-formamido-N-(2-methoxyethyl)-N-[[4-[5-(trifluoromethyl)-1,2,4-oxadiazol-3-yl]phenyl]methyl]-cyclopropane-carboxamide]	–	≥ 80
O=CNC1(C(=O)N(Cc2ccc(-c3noc(C(F)(F)F)n3)cc2)CC2CCCO2)CC1 (centres unmarked) [Compound 1.441, 1-formamido-N-(tetrahydrofuran-2-ylmethyl)-N-[[4-[5-(trifluoromethyl)-1,2,4-oxadiazol-3-yl]phenyl]methyl]-cyclopropane-carboxamide]	–	≥ 80
CC(=O)NCC(=O)N(Cc1ccc(-c2noc(C(F)(F)F)n2)cc1)OCc1ccc(Cl)cc1 [Compound 1.552, 2-ace tamido-N-[(4-chlorophenyl)-methoxy]-N-[[4-[5-(trifluoromethyl)-1,2,4-oxadiazol-3-yl]phenyl]methyl]-acetamide]	–	≥ 80

Source: patent US11180462B2, “Microbiocidal oxadiazole derivatives” (SYNGENTA PARTICIPATIONS AG, priority 2015, dated 2021)
